From patent US20040029908A1, “Tricyclo compounds, a process for their production and a pharmaceutical composition containing the same” (FUJISAWA PHARMACEUTICAL CO., LTD., priority 1984, published 2004)
In brackets after ≈: the same amount, converted by molar mass.

Assays:
[1] = system: Skin Allograft Survival in Rats (Fischer donor, WKA recipient); assay: Skin Allograft Survival in Rats; format: in vivo, rat; conditions: daily treatment, intramuscularly, 14 consecutive days
Procedure: Vental allografts from donor (Fischer) rats were grafted onto the lateral thoracic area of recipient (WKA) rats. The dressings were removed on day 5. The grafts were inspected daily until rejection which was defined as more than 90% necrosis of the graft epitherium.
The FR-900506 substance was dissolved in olive oil and administered intramuscularly for 14 consecutive days, beginning at the day of transplantation.

DTH to MBSA in BDF1 mice = assay: Delayed Type Hypersensitivity (DTH) Response to methylated bovine serum albumin (MBSA); format: in vivo, mouse
Procedure: Female BDF1 mice were used for this test. The mice were sensitized with a subcutaneous injection of 0.1 ml emulsion consisting of equal volume of MBSA (2 mg/ml) and Freund's incomplete adjuvant(FIA). Seven days later, a 0.05 ml challenge dose of 0.4 mq/ml MIBSA in saline was injected into the plantar region of the right hind foot and 0.05 ml saline into the left hind foot to act as a control. Twenty four hours after challenge, both hind feet were measured with a dial gauge and the mean challenge in footpad thickness was measured. The FR-900506 substance was injected for 8 days orally, starting from the sensitization.

[2] = system: Contact-Delayed Hypersensitivity in ICR mice; assay: Contact-Delayed Hypersensitivity in mice (picryl chloride); format: in vivo, mouse
Procedure: Female ICR mice were used for this test. A tenth of a 7% (w/v) solution of picryl chloride in ethanol prepared at the time of the experiment was applied to the ventral surface of previously shaved animals. Such a sensitization was performed twice at intervals of 7 days. Seven days later, the thickness of the ears were measured with an ordinary engineer's micrometer and a 1% (w/v) solution of picryl chloride in olive oil was painted to both surfaces of each ear. The inflammation was evaluated 24 hours later by measuring the both of ears. The results were expressed as the average increase in thickness of the ears measured in units of 10 ^−3cm. The FR-900506 substance was injected for 14 days orally, starting from the first sensitization.

[3] = system: Plaque Forming Cell (PFC) Response in C3H/He mice; assay: in vivo Plaque Forming Cell (PFC) Response in Mice; set-up: species or system mouse
Procedure: Male C3H/He mice 6 to 7 weeks of age were used for this 1 test. The mice were immunized on day 0 with 0.2 ml of 1 ×10^8 washed sheep erythrocytes intravenously. Spleens were removed on day 4 and spleen cells were incubated in the presence of SRBC as described by Cunningham and Szenberg (1968). Tests were evaluated by enumeration of direct generated plaque forming cells in the presence of complement. Suspensions of spleen cells were counted with a Microcellcounter CC-130 (Sysmex, Japan) and PFC results were calculated as PFC/10^6 recovered cells. The FR-900506 substance was administered orally for 4 days starting from the immunization.

[4] = system: interleukin 3 and interferones; assay: Lymphokine production in the supernatant of MLR; format: cell-based, mouse; conditions: especially y-interferone
Procedure: The mixed lymphocyte reaction (MILR) was performed in microtiter plates, with each well containing 5 ×10^5 C57BL/6 responder cells (H-2^b), 5 ×10^5 mitomycin C treated (25 μg/ml mitomycin C at 37° C. for 30 minutes and washed three times pith RPMI 1640 medium) BALB/C stimulator cells ([…]) in 0.2 ml RPMI 1640 medium supplemented with 10% fetal calf serum, 2mM sodium hydrogen carbonate, penicillin 20 (50 unites/ml) and streptomycin (50 μg/ml) . The cells were incubated at 37° C. in humidified atmosphere of 5% carbon dioxide and 95% of air for 48 hours and the supernatant was collected. The FR-900506 substance was dissolved in ethanol and further diluted in RPMI 1640 medium and added to the cultures to give final concentrations of 0.1 μg/ml or less.

Fusarium oxysporum = assay: Antimicrobial activity, serial agar dilution method in Sabouraud agar; format: cell-based; conditions: 30° C., 24 hours
Procedure: (§1) Antimicrobial activities of the tricyclo compounds (I) against various fungi were determined by a serial agar dilution method in a Sabouraud agar. Minimum inhibitory concentrations (MIC) were expressed in terms of μg/ml after incubation at 30° C. for 24 hours.

[5] = system: Aspergillus fumigatus IFO 5840; assay: as above; format: cell-based; conditions: IFO5840, 30° C., 24 hours
Procedure: as §1

[6] = system: Experimental Allergic Encephalomyelytis in SJL/J Mice; assay: Experimental Allergic Encephalomyelitis (EAE) in SJL/J Mice; format: in vivo, mouse
ddY mice = assay: Acute toxicities in ddY mice by intraperitoneal injection; format: in vivo; conditions: ddY mice, intraperitoneal injection
[7] = Solubility (physical and chemical properties); format: physicochemical
[8] = system: Local Graft-versus-Host Reaction in BDF1 mice; assay: Local Graft-versus-Host Reaction (GvHR) in Mice; format: in vivo; conditions: Mus musculus, po; orally for five days; weight difference right and left popliteal lymph nodes, day 7; read-out: ED50 for prevention of the local graft-versus-host reaction
Procedure: The viable spleen cells ([…] cells) from C57BL/6 donors were injected subcutaneously into the right hind foot pad of BDF1 mice to induce local GvHR. The mice were killed 7 days later and both right (injected paw) and left (uninjected paw) popliteal lymph nodes (PLN) were weighed. The GVHR was expressed as the weight difference between right and left PLN. The FR-900506 substance was dissolved in olive oil and administered orally for five days starting on the same day as sensitization.

SMILES: C=CCC1/C=C(\C)CC(C)CC(OC)C2OC(O)(C(=O)C(=O)N3CCCCC3C(=O)OC(/C(C)=C/C3CCC(O)C(OC)C3)C(C)C(O)CC1=O)C(C)CC2OC (stereo not shown) [FR-900506, 17-Allyl-1,14-dihydroxy-12-[2-(4-hydroxy-3-methoxycyclohexyl)-1-methyvinyl]-23-25-dimethoxy-13,19,21,27-tetramethyl-11,28-dioxa-4-azatricyclo[22.3.1.0^4,9]octacos-18-ene-2,3,10,16-tetraone]
- Effect on skin allograft survival (in words) [1]: clearly prolonged skin allograft survival
- Footpad Swelling (DTH to MBSA in BDF1 mice; 10 mg/kg orally for 8 days): 31.0 ± 4.4 × 10^−3 cm
- Footpad Swelling (DTH to MBSA in BDF1 mice; 32 mg/kg orally for 8 days): 20.8 ± 4.4 × 10^−3 cm
- Footpad Swelling (DTH to MBSA in BDF1 mice; 100 mg/kg orally for 8 days): 7.8 ± 1.6 × 10^−3 cm
- ED50 (DTH to MBSA in BDF1 mice; Mus musculus, po, 192 h, orally for 8 days starting from the sensitization): 18.4 mg/kg
- Increase of ears at 24 hours after challenge ([2]; 32 mg/kg orally for 14 days): 6.4 ± 1.6 × 10^−3 cm
- Increase of ears at 24 hours after challenge ([2]; 100 mg/kg orally for 14 days): 2.2 ± 1.5 × 10^−3 cm
- PFC/10^6 cells ([3]; 3.2 mg/kg orally for 4 days): 3618 ± 476 PFC/10^6 cells
- PFC/10^6 cells ([3]; 10 mg/kg orally for 4 days): 1382 ± 243 PFC/10^6 cells
- PFC/10^6 cells ([3]; 32 mg/kg orally for 4 days): 657 ± 41 PFC/10^6 cells
- PFC/10^6 cells ([3]; 100 mg/kg orally for 4 days): 278 ± 41 PFC/10^6 cells
- ED50 ([3]; Mus musculus, po, 96 h, orally for 4 days starting from the immunization): 5.9 mg/kg
- Lymphokine production (in words) [4]: inhibited lymphokine production such as interleukin 3 and interferones
- MIC (Fusarium oxysporum): 0.05 µg/mL (≈ 0.0622 µM)
- MIC [5]: 0.025 µg/mL (≈ 0.0311 µM)
- Number of Animals with Disease at Day 24 ([6]; 32 mg/kg orally for 19 days starting on day 0): 0/5
- Development of clinical signs of EAE (in words) ([6]; orally for 19 days starting on day 0): clearly prevented the development of clinical signs of EAE
- the dead at dose of 100 mg/kg (ddY mice): could not be observed
- Solubility ([7]; hexane (n-hexane), petroleum ether): Sparingly Soluble
- Solubility ([7]; methanol, ethanol, acetone, ethyl acetate, chloroform, diethyl ether and benzene): Soluble
- Solubility ([7]; water): Insoluble
- ED50 [8]: 19 mg/kg
